{"source": "patent US9656972B2", "about": "“Compounds for treatment of cystic fibrosis” (THE CALIFORNIA INSTITUTE FOR BIOMEDICAL RESEARCH, priority 2013, dated 2017)", "key": {"guinea-pigs": {"test_system": "guinea-pigs", "assay": "Tracheal potential difference (TPD) after intra-tracheal dosing in guinea pigs", "assay_type": "in vivo", "conditions": "guinea pig; for TPD (mV): i.t. instillation, mean; for TPD Assessment Time after i.t. Treatment 1 hr / TPD Assessment Time after i.t. Treatment 3 hr / TPD Assessment Time after i.t. Treatment 5 hr / TPD Assessment Time after i.t. Treatment 8 hr / TPD Assessment Time after i.t. Treatment 24 hr / TPD Assessment Time after i.t. Treatment 48 hr: Table 3, mean ± sem", "description": "Cystic fibrosis (CF) and chronic obstructive pulmonary disease (COPD) is dysregulated clearance of mucus across the cell layers lining the respiratory tract. A therapeutic strategy to treat these diseases is to inhibit these channels or the regulators of these channels in an effort to correct this mucus clearance defect. Potential difference is used in the clinic as a diagnostic tool for cystic fibrosis sufferers and for clinical trials. Small molecule inhibitors of these targets will enhance mucociliary clearance and thereby improve lung function and reduce the rate of exacerbations in cystic fibrosis (CF) and chronic obstructive pulmonary disease (COPD) patients. The guinea pig, unlike other rodents, has a lung structure which is roughly analogous to the human lung. For this reason, in terms of rodent models of lung function the guinea pig is often the model of choice for respiratory disease models including asthma, COPD and respiratory distress syndrome.\nPreparation of Agar Bridges\nAgar (3.5%) was dissolved in Hank's buffered salt solution (pH 7.4, 280-305 mosmkg_1H2O) by heating in a water bath at 100° C. A 30-40 cm length of polyethylene tubing, of which one end was bevelled at an angle of 20-60°, was then filled with the agar ensuring no air bubbles were formed or trapped within the tubing. The beveled tip of the tube was then dipped in the liquid agar, creating a small bulge. The exploring and reference electrodes constructed with the Hank's buffered salt solution/agar bridge were linked to a calomel half cell by immersion in 1M KCl.\nGuinea pigs received a single dose of either the test article or vehicle instilled directly into the trachea. The animal was placed under short-term anesthesia using an inhaled isoflurane/nitrous oxide (N2O) 1:1 mixture (level 5/optimal for ˜10 sec.; 3.5/2 for 5 min.). At this suitable depth of anesthesia (loss of pedal and blink reflex), a single dose of either the test article, vehicle and/or positive control was instilled directly into the trachea. This was accomplished by very delicately inserted the 3″, 18 guage feeding tube into the trachea to preserve the potential difference of the mucosa. The guinea pig was allowed to recovered immediately; at times with the aid of supplemental O2. […] If there was apparent toxicity, animals were euthanized immediately and all observation was appropriately documented. As the animal was anesthetized during this treatment, no local anesthesia was necessary and there was no need to use a laryngoscope.\n30 minutes prior to the 3 hr post dosing surgery each guinea pig received a dose of 0.4 mL of Midazolam-5 mg/mL, intra-peritoneal (i.p.) injection followed 25 minutes later with a 1 mL/kg of 50 mg/kg ketamine/6.5 mg/kg xylazine i.p. injection (previously prepared with 100 mg/mL ketamine and 25 mg/mL xylazine in Sterile Water for Injection USP mixed at 2:1:1 respectively). […] The trachea was exposed and visualized near the sternum using minimal blunt dissection. A lateral incision was made between the cartilaginous rings of the trachea close to the sternum. The beveled (distal) end of an exploring electrode was gently inserted into the lumen of the trachea moving in the direction towards the larynx, ensuring that spontaneous respiration was still possible. The beveled end of the reference electrode was positioned near the trachea in electrical contact with the flesh of the throat. A small volume of HBSS was applied into this region to ensure a good electrical contact. Potential difference was measured using a high impedance voltmeter (IsoMil) (5-0.5 cm increment measurement for verification—but only the initial placement value is recorded). The animal was terminated immediately after this procedure while still under anesthesia with an intra-cardiac dose of 0.5 mL of Euthasol."}, "[1]": {"assay": "Systemic (plasma) exposure after intratracheal dosing", "assay_type": "in vivo, guinea pig", "conditions": "1 mg/kg single dose, compared with monomeric GS-9411", "description": "A comparison of systemic (plasma exposure) of monomeric compound GS-9411 and dimeric compound 28 after intratracheal dosing was performed (at 1 mg/kg single dose)."}, "[2]": {"conditions": "Table 1, dose 30 ug/kg, 3 hr after dosing"}, "[3]": {"conditions": "Table 1, dose 300 ug/kg, 3 hr after dosing"}, "[4]": {"conditions": "Table 1, dose 0.2 ug/kg, 3 hr after dosing"}, "[5]": {"conditions": "Table 2 controls, dose 300 ug/kg, vehicle −12.4"}}, "data": [{"compound": "N=C(NCCCCc1ccc(OCCOCCOCCNC(=O)C(=O)NCCOCCOCCOc2ccc(CCCCNC(=N)NC(=O)c3nc(Cl)c(N)nc3N)cc2)cc1)NC(=O)c1nc(Cl)c(N)nc1N", "note": "[Compound 69]", "values": [{"measurement": "TPD (mV)", "setting": "guinea-pigs; [2]", "result": "−6.3", "unit": "mV"}]}, {"compound": "N=C(NCCCCc1ccc(OCCOCCOC(=O)NCCCCNC(=O)OCCOCCOc2ccc(CCCCNC(=N)NC(=O)c3nc(Cl)c(N)nc3N)cc2)cc1)NC(=O)c1nc(Cl)c(N)nc1N", "note": "[Compound 28]", "values": [{"measurement": "lower AUC (total area under the curve) versus GS-9411", "setting": "[1]", "result": 5, "unit": "fold"}, {"measurement": "lower Cmax (maximal concentration) versus GS-9411", "setting": "[1]", "result": 20, "unit": "×"}, {"measurement": "TPD (mV)", "setting": "guinea-pigs; [3]", "result": "−4.00", "unit": "mV"}, {"measurement": "TPD Assessment Time after i.t. Treatment 1 hr", "setting": "guinea-pigs; 30 μg/kg", "result": "−6.7 ± 0.65 (3)"}, {"measurement": "TPD Assessment Time after i.t. Treatment 3 hr", "setting": "guinea-pigs; 30 μg/kg", "result": "−6.4 ± 0.60 (3)"}, {"measurement": "TPD Assessment Time after i.t. Treatment 5 hr", "setting": "guinea-pigs; 30 μg/kg", "result": "−5.4 ± 1.03 (3)"}, {"measurement": "TPD Assessment Time after i.t. Treatment 8 hr", "setting": "guinea-pigs; 30 μg/kg", "result": "−5.1 ± 0.54 (3)"}, {"measurement": "TPD Assessment Time after i.t. Treatment 24 hr", "setting": "guinea-pigs; 30 μg/kg", "result": "−5.9 ± 0.18 (3)"}, {"measurement": "TPD Assessment Time after i.t. Treatment 48 hr", "setting": "guinea-pigs; 30 μg/kg", "result": "−9.6 ± 1.43 (3)"}]}, {"compound": "N=C(NCCCCc1ccc(OCCOCCOCCNC(=O)CCC(=O)NCCOCCOCCOc2ccc(CCCCNC(=N)NC(=O)c3nc(Cl)c(N)nc3N)cc2)cc1)NC(=O)c1nc(Cl)c(N)nc1N", "note": "[Compound 68]", "values": [{"measurement": "TPD (mV)", "setting": "guinea-pigs; [4]", "result": "−6.9", "unit": "mV"}]}, {"compound": "N=C(NCCCCc1ccc(OCCOCCNC(=O)CCC(=O)NCCOCCOc2ccc(CCCCNC(=N)NC(=O)c3nc(Cl)c(N)nc3N)cc2)cc1)NC(=O)c1nc(Cl)c(N)nc1N", "note": "[Compound 67]", "values": [{"measurement": "TPD (mV)", "setting": "guinea-pigs; [4]", "result": "−7.0", "unit": "mV"}]}, {"compound": "CN(C)C(=O)COC(=O)Cc1ccc(OC(=O)c2ccc(NC(=N)N)cc2)cc1", "note": "[Camostat]", "values": [{"measurement": "TPD (mV)", "setting": "guinea-pigs; [5]", "result": "−4.9", "unit": "mV"}]}, {"compound": "NC(=NCc1ccccc1)NC(=O)c1nc(Cl)c(N)nc1N", "note": "[Benzamil]", "values": [{"measurement": "TPD (mV)", "setting": "guinea-pigs; [5]", "result": "−6.2", "unit": "mV"}, {"measurement": "TPD Assessment Time after i.t. Treatment 1 hr", "setting": "guinea-pigs; 300 μg/kg", "result": "−8.9 (1)"}, {"measurement": "TPD Assessment Time after i.t. Treatment 3 hr", "setting": "guinea-pigs; 300 μg/kg", "result": "−7.2 (1)"}, {"measurement": "TPD Assessment Time after i.t. Treatment 5 hr", "setting": "guinea-pigs; 300 μg/kg", "result": "−8.5 (1)"}, {"measurement": "TPD Assessment Time after i.t. Treatment 8 hr", "setting": "guinea-pigs; 300 μg/kg", "result": "−6.5 (1)"}, {"measurement": "TPD Assessment Time after i.t. Treatment 24 hr", "setting": "guinea-pigs; 300 μg/kg", "result": "−4.8 (1)"}, {"measurement": "TPD Assessment Time after i.t. Treatment 48 hr", "setting": "guinea-pigs; 300 μg/kg", "result": "−10.0 ± 0.07 (2)"}]}, {"compound": "COC(=O)C(CCCC(NC(=O)OCCOCCOc1ccc(CCCCNC(=N)NC(=O)c2nc(Cl)c(N)nc2N)cc1)C(=O)OC)NC(=O)OCCOCCOc1ccc(CCCCNC(=N)NC(=O)c2nc(Cl)c(N)nc2N)cc1", "note": "(stereo not drawn) [Compound 46]", "values": [{"measurement": "TPD (mV)", "setting": "guinea-pigs; [2]", "result": "−7.30", "unit": "mV"}]}, {"compound": "N=C(N)Nc1ccc(C(=O)Oc2ccc3cc(C(=N)NCCOCCOCCNC(=N)c4ccc5cc(OC(=O)c6ccc(NC(=N)N)cc6)ccc5c4)ccc3c2)cc1", "note": "[Compound 50]", "values": [{"measurement": "TPD (mV)", "setting": "guinea-pigs; [3]", "result": "−6.20", "unit": "mV"}]}, {"compound": "N=C(NCCCCc1ccc(OCCOCCOCCOCCOCCO)cc1)NC(=O)c1nc(Cl)c(N)nc1N", "note": "[Compound 66]", "values": [{"measurement": "TPD (mV)", "setting": "guinea-pigs; [2]", "result": "−7.80", "unit": "mV"}]}, {"compound": "N=C(NCCCCc1ccc(OCCOCCNC(=O)C(O)C(O)C(=O)NCCOCCOc2ccc(CCCCNC(=N)NC(=O)c3nc(Cl)c(N)nc3N)cc2)cc1)NC(=O)c1nc(Cl)c(N)nc1N", "note": "(stereo not drawn) [Compound 16]", "values": [{"measurement": "TPD (mV)", "setting": "guinea-pigs; [2]", "result": "−6.30", "unit": "mV"}]}, {"compound": "N=C(N)Nc1ccc(C(=O)Oc2ccc(CC(=O)OCC(=O)NCCOCCOCCNC(=O)COC(=O)Cc3ccc(OC(=O)c4ccc(NC(=N)N)cc4)cc3)cc2)cc1", "note": "[Compound 53]", "values": [{"measurement": "TPD (mV)", "setting": "guinea-pigs; [2]", "result": "−9.3", "unit": "mV"}]}, {"compound": "N=C(NCCCCc1ccc(OCCOCCNC(=O)NCCCCNC(=O)NCCOCCOc2ccc(CCCCNC(=N)NC(=O)c3nc(Cl)c(N)nc3N)cc2)cc1)NC(=O)c1nc(Cl)c(N)nc1N", "note": "[Compound 37]", "values": [{"measurement": "TPD (mV)", "setting": "guinea-pigs; [2]", "result": "−7.50", "unit": "mV"}, {"measurement": "TPD (mV)", "setting": "guinea-pigs; [3]", "result": "−5.50", "unit": "mV"}]}]}
